target: T1, human M1 receptor (Homo sapiens, UniProt P11229); test: Measurement of M1 receptor positive allosteric modulator (M1PAM) activity; type: cell-based; settings: PAM activity in presence of acetylcholine at EC20 concentration; CHO-K1 cells stably expressing human M1 receptor; IP1 time-resolved fluorescence
T1 construct: expressed in transfected cells; host or cells: CHO-K1
T1 sequence (P11229 1-460): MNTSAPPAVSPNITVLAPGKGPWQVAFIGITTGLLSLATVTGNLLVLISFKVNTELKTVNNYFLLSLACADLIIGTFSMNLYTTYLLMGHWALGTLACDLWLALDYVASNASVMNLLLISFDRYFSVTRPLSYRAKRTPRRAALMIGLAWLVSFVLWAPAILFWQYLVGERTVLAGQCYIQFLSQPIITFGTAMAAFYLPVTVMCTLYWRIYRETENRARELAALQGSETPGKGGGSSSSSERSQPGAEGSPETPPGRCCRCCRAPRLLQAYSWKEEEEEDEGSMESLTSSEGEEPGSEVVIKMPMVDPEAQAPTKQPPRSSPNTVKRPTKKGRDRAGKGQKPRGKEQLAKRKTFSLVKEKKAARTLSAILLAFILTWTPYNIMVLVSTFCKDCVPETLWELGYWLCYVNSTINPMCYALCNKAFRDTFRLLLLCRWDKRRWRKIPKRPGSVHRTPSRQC
Description: Measurement of M1 Receptor Positive Allosteric Modulator (M1PAM) Activity
The activity of a test compound in the presence of acetylcholine at an EC20 concentration affording about 20% action of the maximum activity was measured as PAM activity. The method therefor is as follows. To a 384-well white plate (Greiner™) was added 4 μL of the test compound diluted with IP1 Stimulation buffer (CisBio™) containing 0.1% fatty acid-free BSA containing 80 nM acetylcholine. Freeze stock of CHO-K1 cells stably expressing human M1 receptor (hCHRMl) was prepared with IP1 Stimulation buffer (CisBio™) containing 0.1% fatty acid-free BSA, 4 μL thereof was added (10,000 cells/well) and the mixture was cultured in a 5% CO2 incubator at 37° C. for 1 hr. 4 μL of a solution (CisBio™) containing IP1-d2 and Anti-IP1-cryptate Tb conjugate was added the mixture was incubated at room temperature for 1 hr, and the time-resolved fluorescence signal was measured on an Envision plate reader (Perkin Elmer™). The activity (%) of the test compound was calculated by defining the value when acetylcholine was added at the final concentration of 20 μM as 100% and the value when DMSO was added instead of the test compound under acetylcholine-free conditions as 0%, and the EC50 value was calculated as a value of 50% of the concentration dependence curve of the test compound.

Going from `Cn1cc(-c2ccc(Cc3cc(C(=O)N[C@H]4CCOC[C@@H]4O)c(F)c4c3OCC4)cc2)nn1` [Example 1, 1,5-anhydro-2,3-dideoxy-3-(((4-fluoro-7-(4-(1-methyl-1H-1,2,3-triazol-4-yl)benzyl)-2,3-dihydro-1-benzofuran-5-yl)carbonyl)amino)-L-threo-pentitol] to `Cn1cc(-c2ccc(Cc3cc(C(=O)N[C@H]4CCOC[C@@H]4O)c(O)c4c3OCC4)cc2)nn1` [Example 20, 1,5-anhydro-2,3-dideoxy-3-(((4-hydroxy-7-(4-(1-methyl-1H-1,2,3-triazol-4-yl)benzyl)-2,3-dihydro-1-benzofuran-5-yl)carbonyl)amino)-L-threo-pentitol], the EC50 rises from 3.1 nM to 43 nM (14-fold).

Going from `Cn1cc(-c2ccc(Cc3cc(C(=O)N[C@H]4CCOC[C@@H]4O)c(F)c4c3OCC4)cc2)cn1` [Example 2, 1,5-anhydro-2,3-dideoxy-3-(((4-fluoro-7-(4-(1-methyl-1H-pyrazol-4-yl)benzyl)-2,3-dihydro-1-benzofuran-5-yl)carbonyl)amino)-L-threo-pentitol] to `O=C(N[C@H]1CCOC[C@@H]1O)c1cc(Cc2ccc(-n3cccn3)cc2)c2c(c1F)CCO2` [Example 9, 1,5-anhydro-2,3-dideoxy-3-(((4-fluoro-7-(4-(1H-pyrazol-1-yl)benzyl)-2,3-dihydro-1-benzofuran-5-yl)carbonyl)amino)-L-threo-pentitol], the EC50 rises from 4.9 nM to 7.6 nM (1.6-fold).

Compared with `O=C(N[C@H]1CCCC[C@@H]1O)c1cc(Cc2ccc(-n3cccn3)cc2)c2c(c1F)CCO2` [Example 10, 4-fluoro-N-((1S,2S)-2-hydroxycyclohexyl)-7-(4-(1H-pyrazol-1-yl)benzyl)-2,3-dihydro-1-benzofuran-5-carboxamide], `O=C(N[C@H]1COCC[C@@H]1O)c1cc(Cc2ccc(-n3cccn3)cc2)c2c(c1F)CCO2` [Example 11, 1,5-anhydro-2,4-dideoxy-2-(((4-fluoro-7-(4-(1H-pyrazol-1-yl)benzyl)-2,3-dihydro-1-benzofuran-5-yl)carbonyl)amino)-L-threo-pentitol] is 5.6-fold higher in EC50: 17 nM for the first, 96 nM for the second.

First: CNC(=O)c1ccc(Cc2cc(C(=O)N[C@H]3CCOC[C@@H]3O)c(F)c3c2OCC3)cc1F [Example 12, 1,5-anhydro-2,3-dideoxy-3-(((4-fluoro-7-(3-fluoro-4-(methylcarbamoyl)benzyl)-2,3-dihydro-1-benzofuran-5-yl)carbonyl)amino)-L-threo-pentitol]
Second: O=C(NC[C@@H]1CCCO1)c1ccc(Cc2cc(C(=O)N[C@H]3CCOC[C@@H]3O)c(F)c3c2OCC3)cc1F [Example 15, 1,5-anhydro-2,3-dideoxy-3-(((4-fluoro-7-(3-fluoro-4-(((2S)-tetrahydrofuran-2-ylmethyl)carbamoyl)benzyl)-2,3-dihydro-1-benzofuran-5-yl)carbonyl)amino)-L-threo-pentitol]
The EC50 of the first is 2.2-fold higher: 11 nM for the first, 4.9 nM for the second.

Going from `COc1c(C(=O)N[C@H]2CCOC[C@@H]2O)cc(Cc2ccc(-c3cn(C)nn3)cc2)c2c1CCO2` [Example 18, 1,5-anhydro-2,3-dideoxy-3-(((4-methoxy-7-(4-(1-methyl-1H-1,2,3-triazol-4-yl)benzyl)-2,3-dihydro-1-benzofuran-5-yl)carbonyl)amino)-L-threo-pentitol] to `COc1c(C(=O)N[C@H]2CCOC[C@@H]2O)cc(Cc2ccc(-c3cn(C)nn3)cc2)c2c1CCC2` [Example 53, 1,5-anhydro-2,3-dideoxy-3-(((4-methoxy-7-(4-(1-methyl-1H-1,2,3-triazol-4-yl)benzyl)-2,3-dihydro-1H-inden-5-yl)carbonyl)amino)-L-threo-pentitol], the EC50 falls from 6 nM to 3.2 nM (1.9-fold). The second is the more potent here.

Compared with `COCCNC(=O)c1ccc(Cc2cc(C(=O)N[C@H]3CCOC[C@@H]3O)c(OC)c3c2OCC3)cc1F` [Example 32, 1,5-anhydro-2,3-dideoxy-3-(((7-(3-fluoro-4-((2-methoxyethyl)carbamoyl)benzyl)-4-methoxy-2,3-dihydro-1-benzofuran-5-yl)carbonyl)amino)-L-threo-pentitol], `COCCNC(=O)c1ccc(Cc2cc(C(=O)N[C@H]3CCOC[C@@H]3O)c(OC)c3c2CCC3)cc1F` [Example 58, 1,5-anhydro-2,3-dideoxy-3-(((7-(3-fluoro-4-((2-methoxyethyl)carbamoyl)benzyl)-4-methoxy-2,3-dihydro-1H-inden-5-yl)carbonyl)amino)-L-threo-pentitol] is 2.6-fold lower in EC50: 24 nM for the first, 9.4 nM for the second. The second is the more potent here.

Compared with `COc1c(C(=O)N[C@H]2CCOC[C@@H]2O)cc(Cc2ccc(C(=O)NC[C@@H]3CCCO3)c(F)c2)c2c1CCO2` [Example 33, 1,5-anhydro-2,3-dideoxy-3-(((7-(3-fluoro-4-(((2S)-tetrahydrofuran-2-ylmethyl)carbamoyl)benzyl)-4-methoxy-2,3-dihydro-1-benzofuran-5-yl)carbonyl)amino)-L-threo-pentitol], `COc1c(C(=O)N[C@H]2CCOC[C@@H]2O)cc(Cc2ccc(C(=O)NC[C@H]3CCCO3)c(F)c2)c2c1CCO2` [Example 43, 1,5-anhydro-2,3-dideoxy-3-(((7-(3-fluoro-4-(((2R)-tetrahydrofuran-2-ylmethyl)carbamoyl)benzyl)-4-methoxy-2,3-dihydro-1-benzofuran-5-yl)carbonyl)amino)-L-threo-pentitol] is 8.7-fold higher in EC50: 11 nM for the first, 96 nM for the second. The first is the more potent here.

Going from `COc1c(C(=O)N[C@H]2CCOC[C@@H]2O)cc(Cc2ccc(-c3cnn(C)c3)nc2)c2c1CCC2` [Example 55, 1,5-anhydro-2,3-dideoxy-3-(((4-methoxy-7-((6-(1-methyl-1H-pyrazol-4-yl)pyridin-3-yl)methyl)-2,3-dihydro-1H-inden-5-yl)carbonyl)amino)-L-threo-pentitol] to `CNC(=O)c1ccc(Cc2cc(C(=O)N[C@H]3CCOC[C@@H]3O)c(OC)c3c2CCC3)cc1F` [Example 57, 1,5-anhydro-2,3-dideoxy-3-(((7-(3-fluoro-4-(methylcarbamoyl)benzyl)-4-methoxy-2,3-dihydro-1H-inden-5-yl)carbonyl)amino)-L-threo-pentitol], the EC50 rises from 5.5 nM to 8.9 nM (1.6-fold). The first is the more potent here.

First: COc1c(C(=O)N[C@H]2CCOC[C@@H]2O)cc(Cc2ccc(C(=O)NC[C@@H]3CCCO3)c(F)c2)c2c1CCC2 [Example 59, 1,5-anhydro-2,3-dideoxy-3-(((7-(3-fluoro-4-(((2S)-tetrahydrofuran-2-ylmethyl)carbamoyl)benzyl)-4-methoxy-2,3-dihydro-1H-inden-5-yl)carbonyl)amino)-L-threo-pentitol]
Second: COc1c(C(=O)N[C@H]2CCOC[C@@H]2O)cc(Cc2ccc(C(=O)NC[C@H]3CCCO3)c(F)c2)c2c1CCC2 [Example 70, 1,5-anhydro-2,3-dideoxy-3-(((7-(3-fluoro-4-(((2R)-tetrahydrofuran-2-ylmethyl)carbamoyl)benzyl)-4-methoxy-2,3-dihydro-1H-inden-5-yl)carbonyl)amino)-L-threo-pentitol]
The EC50 of the first is 8.2-fold lower: 3.9 nM for the first, 32 nM for the second.

In the case of `COc1c(C(=O)N[C@H]2CCOC[C@@H]2O)cc(Cc2ccc(C(=O)NCCCS(C)(=O)=O)c(F)c2)c2c1CCC2` [Example 66, 1,5-anhydro-2,3-dideoxy-3-(((7-(3-fluoro-4-((3-(methylsulfonyl)propyl)carbamoyl)benzyl)-4-methoxy-2,3-dihydro-1H-inden-5-yl)carbonyl)amino)-L-threo-pentitol], the EC50 is reported as 12 nM.
